In PubChem BioAssay (NCI):
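Abbreviation: GI50, concentration required for 50% inhibition of growth. At the TGI there is no net growth.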

Assays:
Test in all cases: inhibition of tumour cell growth, NCI panel, 384-well format
MALME-3M melanoma = tested on: MALME-3M melanoma
OVCAR-5 ovarian = tested on: OVCAR-5 ovarian
NCI-H226 lung = tested on: NCI-H226 lung
IGROV1 ovarian = tested on: IGROV1 ovarian
RXF 393 renal = tested on: RXF 393 renal
HOP-92 NSCLC = tested on: HOP-92 NSCLC
HCT-15 colon = tested on: HCT-15 colon
PC-3 prostate = tested on: PC-3 prostate
KM12 colon = tested on: KM12 colon
A549 NSCLC = tested on: A549 NSCLC
SNB-75 CNS = tested on: SNB-75 CNS
UACC-62 melanoma = tested on: UACC-62 melanoma
MDA-MB-435 melanoma = tested on: MDA-MB-435 melanoma
UO-31 renal = tested on: UO-31 renal
SK-OV-3 ovarian = tested on: SK-OV-3 ovarian
HOP-62 NSCLC = tested on: HOP-62 NSCLC
HCT-116 colon = tested on: HCT-116 colon
NCI-H322M lung = tested on: NCI-H322M lung
NCI-H522 lung = tested on: NCI-H522 lung
A498 renal = tested on: A498 renal
HS 578T breast = tested on: HS 578T breast
MOLT-4 leukemia = tested on: MOLT-4 leukemia
SK-MEL-5 melanoma = tested on: SK-MEL-5 melanoma
UACC-257 melanoma = tested on: UACC-257 melanoma
SW-620 colon = tested on: SW-620 colon
SK-MEL-28 melanoma = tested on: SK-MEL-28 melanoma
SF-539 CNS = tested on: SF-539 CNS
OVCAR-8 ovarian = tested on: OVCAR-8 ovarian
LOX IMVI melanoma = tested on: LOX IMVI melanoma

Structure (SMILES): CC[C@H](C)n1cc(C)c2c(C(=O)NCc3c(C)cc(C)[nH]c3=O)cc(-c3ccc(N4CCNCC4)nc3)cc21
- GI50 (MALME-3M melanoma): 1.61 µM
- TGI (MALME-3M melanoma): 2.97 µM
- GI50 (OVCAR-5 ovarian): 2.62 µM
- TGI (OVCAR-5 ovarian): 6.44 µM
- GI50 (NCI-H226 lung): 3.76 µM
- TGI (NCI-H226 lung): 14.5 µM
- GI50 (IGROV1 ovarian): 1.54 µM
- TGI (IGROV1 ovarian): 3.67 µM
- GI50 (RXF 393 renal): 1.73 µM
- TGI (RXF 393 renal): 3.14 µM
- GI50 (HOP-92 NSCLC): 1.83 µM
- TGI (HOP-92 NSCLC): 3.25 µM
- GI50 (HCT-15 colon): 1.86 µM
- TGI (HCT-15 colon): 3.48 µM
- GI50 (PC-3 prostate): 3.23 µM
- TGI (PC-3 prostate): 8.54 µM
- GI50 (KM12 colon): 1.79 µM
- TGI (KM12 colon): 3.32 µM
- GI50 (A549 NSCLC): 1.96 µM
- TGI (A549 NSCLC): 3.92 µM
- GI50 (SNB-75 CNS): 1.35 µM
- TGI (SNB-75 CNS): 2.65 µM
- GI50 (UACC-62 melanoma): 1.57 µM
- TGI (UACC-62 melanoma): 2.92 µM
- GI50 (MDA-MB-435 melanoma): 2.07 µM
- TGI (MDA-MB-435 melanoma): 3.52 µM
- GI50 (UO-31 renal): 13.1 µM
- TGI (UO-31 renal): 25.8 µM
- GI50 (SK-OV-3 ovarian): 1.86 µM
- TGI (SK-OV-3 ovarian): 3.3 µM
- GI50 (HOP-62 NSCLC): 1.64 µM
- TGI (HOP-62 NSCLC): 3.02 µM
- GI50 (HCT-116 colon): 1.79 µM
- TGI (HCT-116 colon): 3.23 µM
- GI50 (NCI-H322M lung): 1.96 µM
- TGI (NCI-H322M lung): 4.07 µM
- GI50 (NCI-H522 lung): 1.86 µM
- TGI (NCI-H522 lung): 3.27 µM
- GI50 (A498 renal): 1.94 µM
- TGI (A498 renal): 3.43 µM
- GI50 (HS 578T breast): 1.41 µM
- TGI (HS 578T breast): 2.71 µM
- GI50 (MOLT-4 leukemia): 1.63 µM
- TGI (MOLT-4 leukemia): 2.99 µM
- GI50 (SK-MEL-5 melanoma): 1.63 µM
- TGI (SK-MEL-5 melanoma): 2.99 µM
- GI50 (UACC-257 melanoma): 1.63 µM
- TGI (UACC-257 melanoma): 2.99 µM
- GI50 (SW-620 colon): 1.74 µM
- TGI (SW-620 colon): 3.12 µM
- GI50 (SK-MEL-28 melanoma): 2.15 µM
- TGI (SK-MEL-28 melanoma): 3.6 µM
- GI50 (SF-539 CNS): 1.6 µM
- TGI (SF-539 CNS): 2.96 µM
- GI50 (OVCAR-8 ovarian): 1.81 µM
- TGI (OVCAR-8 ovarian): 3.34 µM
- GI50 (LOX IMVI melanoma): 1.64 µM
- TGI (LOX IMVI melanoma): 3.02 µM
